# In PubChem BioAssay AID220 (DTP/NCI, 2004):
# “And” between values parts separate entries of the source, which are not always exact repeats. Equal values may be shown once. Inconclusive results are not listed.
# Test system: CD8F1 mice, subcutaneous mammary adenocarcinoma, T/C%
# Test: NCI In Vivo Anticancer Drug Screen. Data for tumor model Mammary Adenocarcinoma CD8F1 (subcutaneous) in CD8F1
# Settings: higher = larger tumour
# Method: The antitumor activity of compounds was measured in mice bearing transplantable tumors. Survival or tumor size were measured and the results are expressed as the measurement made in the treated group (T) divided by the measurement made in the vehicle treated control group (C). The tumor model used in this assay is Mammary Adenocarcinoma CD8F1 (subcutaneous) in CD8F1
# [1] = endpoint: median tumor weight (est.), dose: 6.25 mg/kg/injection, schedule: Q07DX005 (ip), vehicle: Klucel (hydroxypropylcellulose) (HPC)
# [2] = endpoint: median tumor weight (est.), dose: 12.5 mg/kg/injection, schedule: Q07DX005 (ip), vehicle: Klucel (hydroxypropylcellulose) (HPC)
# [3] = endpoint: median tumor weight (est.), dose: 50.0 mg/kg/injection, schedule: Q07DX005 (ip), vehicle: saline
compound,measurement,setting,value
Nc1ncnc2c1ncn2C1OC(CO)C(O)C1O (centres undefined),T/C,"endpoint: median tumor weight (est.), dose: 16.0 mg/kg/injection, schedule: Q07DX005 (ip), vehicle: Klucel (hydroxypropylcellulose) (HPC)",103 % of control
same,T/C,"endpoint: median tumor weight (est.), dose: 37.5 mg/kg/injection, schedule: Q07DX005 (ip), vehicle: saline",47 % of control
same,T/C,"endpoint: median tumor weight (est.), dose: 75.0 mg/kg/injection, schedule: Q07DX005 (ip), vehicle: saline",33 % of control
same,T/C,"endpoint: median tumor weight (est.), dose: 128.0 mg/kg/injection, schedule: Q07DX005 (ip), vehicle: Klucel (hydroxypropylcellulose) (HPC)",83 % of control and 99 % of control
same,T/C,"endpoint: median tumor weight (est.), dose: 150.0 mg/kg/injection, schedule: Q07DX005 (ip), vehicle: saline",47 % of control
same,T/C,"endpoint: median tumor weight (est.), dose: 300.0 mg/kg/injection, schedule: Q07DX005 (ip), vehicle: saline",88 % of control
same,T/C,"endpoint: median tumor weight (est.), dose: 600.0 mg/kg/injection, schedule: Q07DX005 (ip), vehicle: saline",71 % of control
same,T/C,"endpoint: median tumor weight (est.), dose: 1200.0 mg/kg/injection, schedule: Q07DX005 (ip), vehicle: saline",60 % of control
C[PH+](C)C.C[PH+](C)C.[Au],T/C,"endpoint: median tumor weight change, dose: 1.5 mg/kg/injection, schedule: Q01DX001 (ip), vehicle: saline",112 % of control
same,T/C,"endpoint: median tumor weight change, dose: 3.0 mg/kg/injection, schedule: Q01DX001 (ip), vehicle: saline",77 % of control
same,T/C,"endpoint: median tumor weight change, dose: 3.12 mg/kg/injection, schedule: Q01DX001 (ip), vehicle: saline",95 % of control
same,T/C,"endpoint: median tumor weight change, dose: 12.5 mg/kg/injection, schedule: Q01DX001 (ip), vehicle: saline",60 % of control and 80 % of control
COC12C(COC(N)=O)C3=C(C(=O)C(C)=C(N)C3=O)N1CC1C2N1C (centres undefined),T/C,"endpoint: median tumor weight (est.), dose: 2.0 mg/kg/injection, schedule: Q07DX005 (ip), vehicle: suspension in saline",53 % of control
same,T/C,"endpoint: median tumor weight (est.), dose: 4.0 mg/kg/injection, schedule: Q07DX005 (ip), vehicle: suspension in saline",73 % of control
same,T/C,"endpoint: median tumor weight (est.), dose: 8.0 mg/kg/injection, schedule: Q07DX005 (ip), vehicle: suspension in saline",3 % of control
O=S(CCCl)CCCl,T/C,"endpoint: median tumor weight (est.), dose: 1.56 mg/kg/injection, schedule: Q07DX005 (ip), vehicle: Klucel (hydroxypropylcellulose) (HPC)",75 % of control
same,T/C,"endpoint: median tumor weight (est.), dose: 3.12 mg/kg/injection, schedule: Q07DX005 (ip), vehicle: Klucel (hydroxypropylcellulose) (HPC)",100 % of control
same,T/C,[1],230 % of control
same,T/C,[2],91 % of control
O=C(CCCCCCC(=O)ON1C(=O)CCC1=O)ON1C(=O)CCC1=O,T/C,"endpoint: median tumor weight change, dose: 187.5 mg/kg/injection, schedule: Q01DX001 (ip), vehicle: saline with Tween-80",100 % of control
same,T/C,"endpoint: median tumor weight change, dose: 375.0 mg/kg/injection, schedule: Q01DX001 (ip), vehicle: saline with Tween-80",102 % of control
same,T/C,"endpoint: median tumor weight change, dose: 750.0 mg/kg/injection, schedule: Q01DX001 (ip), vehicle: saline with Tween-80",51 % of control
CC(=O)NNC(=O)c1ccccn1,T/C,"endpoint: mean tumor weight, dose: 25.0 mg/kg/injection, schedule: Q01DX009 (ip), vehicle: saline",28 % of control
same,T/C,"endpoint: mean tumor weight, dose: 50.0 mg/kg/injection, schedule: Q07DX004 (ip), vehicle: saline",112 % of control
same,T/C,"endpoint: mean tumor weight, dose: 100.0 mg/kg/injection, schedule: Q01DX009 (ip), vehicle: saline",32 % of control
same,T/C,"endpoint: mean tumor weight, dose: 100.0 mg/kg/injection, schedule: Q07DX004 (ip), vehicle: saline",74 % of control
same,T/C,"endpoint: mean tumor weight, dose: 100.0 mg/kg/injection, schedule: Q07DX005 (ip), vehicle: saline",99 % of control
same,T/C,"endpoint: mean tumor weight, dose: 200.0 mg/kg/injection, schedule: Q07DX004 (ip), vehicle: saline",56 % of control
same,T/C,"endpoint: mean tumor weight, dose: 200.0 mg/kg/injection, schedule: Q07DX005 (ip), vehicle: saline",82 % of control
CN1CCN(CN2C(=O)C3C4C=CC(C3C2=O)C2C3C(=O)N(CN5CCN(C)CC5)C(=O)C3C42)CC1 (centres undefined),T/C,"endpoint: median tumor weight change, dose: 21.6 mg/kg/injection, schedule: Q01DX005 (ip), vehicle: water",98 % of control
same,T/C,"endpoint: median tumor weight change, dose: 24.8 mg/kg/injection, schedule: Q01DX005 (ip), vehicle: water",84 % of control
same,T/C,"endpoint: median tumor weight change, dose: 36.0 mg/kg/injection, schedule: Q01DX005 (ip), vehicle: water",70 % of control
same,T/C,"endpoint: median tumor weight change, dose: 41.4 mg/kg/injection, schedule: Q01DX005 (ip), vehicle: water",25 % of control
same,T/C,"endpoint: median tumor weight change, dose: 60.0 mg/kg/injection, schedule: Q01DX005 (ip), vehicle: water",54 % of control
same,T/C,"endpoint: median tumor weight change, dose: 69.0 mg/kg/injection, schedule: Q01DX005 (ip), vehicle: water",23 % of control
same,T/C,"endpoint: median tumor weight change, dose: 100.0 mg/kg/injection, schedule: Q01DX005 (ip), vehicle: water",21 % of control
same,T/C,"endpoint: median tumor weight change, dose: 108.0 mg/kg/injection, schedule: Q01DX001 (ip), vehicle: water",33 % of control
same,T/C,"endpoint: median tumor weight change, dose: 123.9 mg/kg/injection, schedule: Q01DX001 (ip), vehicle: water",33 % of control
COc1cc(C[C@H]2c3cc(OC)c(OC)cc3CCN2C)c(Oc2cc3c(cc2OC)-c2c(OC)c(OC)cc4c2[C@H](C3)N(C)CC4)cc1OC,T/C,"endpoint: median tumor weight (est.), dose: 12.5 mg/kg/injection, schedule: Q07DX005 (ip), vehicle: saline",118 % of control
same,T/C,[3],95 % of control
same,T/C,"endpoint: median tumor weight (est.), dose: 200.0 mg/kg/injection, schedule: Q07DX005 (ip), vehicle: saline",52 % of control
same,T/C,"endpoint: median tumor weight (est.), dose: 400.0 mg/kg/injection, schedule: Q07DX005 (ip), vehicle: saline",67 % of control
Cc1ccc(C(=O)[O][Hg][CH2]C2COC([CH2][Hg][O]C(=O)c3ccc(C)cc3)CO2)cc1 (centres undefined),T/C,[1],60 % of control
same,T/C,[2],72 % of control
same,T/C,"endpoint: median tumor weight (est.), dose: 25.0 mg/kg/injection, schedule: Q07DX005 (ip), vehicle: Klucel (hydroxypropylcellulose) (HPC)",117 % of control
same,T/C,"endpoint: median tumor weight (est.), dose: 50.0 mg/kg/injection, schedule: Q07DX005 (ip), vehicle: Klucel (hydroxypropylcellulose) (HPC)",57 % of control
same,T/C,"endpoint: median tumor weight (est.), dose: 100.0 mg/kg/injection, schedule: Q07DX005 (ip), vehicle: Klucel (hydroxypropylcellulose) (HPC)",162 % of control
CCC(C(=O)O)C(=O)O.[NH2-].[NH2-].[Pt+2],T/C,"endpoint: median tumor weight change, dose: 15.62 mg/kg/injection, schedule: Q01DX001 (ip), vehicle: saline",172 % of control
same,T/C,"endpoint: median tumor weight change, dose: 16.0 mg/kg/injection, schedule: Q01DX001 (ip), vehicle: saline",121 % of control
same,T/C,"endpoint: median tumor weight change, dose: 31.0 mg/kg/injection, schedule: Q01DX001 (ip), vehicle: saline",46 % of control
same,T/C,"endpoint: median tumor weight change, dose: 31.25 mg/kg/injection, schedule: Q01DX001 (ip), vehicle: saline",87 % of control
same,T/C,"endpoint: median tumor weight change, dose: 62.0 mg/kg/injection, schedule: Q01DX001 (ip), vehicle: saline",68 % of control
same,T/C,"endpoint: median tumor weight change, dose: 62.5 mg/kg/injection, schedule: Q01DX001 (ip), vehicle: saline",92 % of control
same,T/C,"endpoint: median tumor weight change, dose: 125.0 mg/kg/injection, schedule: Q01DX001 (ip), vehicle: saline",2 % of control and 26 % of control
COc1cccc2c1C(=N)c1c(O)c3c(c(O)c1C2=O)C[C@@](O)(C(C)=O)C[C@@H]3OC1CC(N)C(O)C(C)O1 (some centres undefined),T/C,"endpoint: median tumor weight (est.), dose: 2.0 mg/kg/injection, schedule: Q07DX005 (ip), vehicle: saline",53 % of control
same,T/C,"endpoint: median tumor weight (est.), dose: 2.97 mg/kg/injection, schedule: Q07DX005 (ip), vehicle: saline",50 % of control
same,T/C,"endpoint: median tumor weight (est.), dose: 3.0 mg/kg/injection, schedule: Q07DX005 (ip), vehicle: saline",115 % of control
same,T/C,"endpoint: median tumor weight (est.), dose: 4.45 mg/kg/injection, schedule: Q07DX005 (ip), vehicle: saline",53 % of control
same,T/C,"endpoint: median tumor weight (est.), dose: 4.5 mg/kg/injection, schedule: Q07DX005 (ip), vehicle: saline",96 % of control
c1ccc([Te][Te]c2ccccc2)cc1,T/C,"endpoint: median tumor weight change, dose: 75.0 mg/kg/injection, schedule: Q01DX001 (ip), vehicle: Klucel (hydroxypropylcellulose) (HPC)",97 % of control
same,T/C,"endpoint: median tumor weight change, dose: 150.0 mg/kg/injection, schedule: Q01DX001 (ip), vehicle: Klucel (hydroxypropylcellulose) (HPC)",48 % of control
same,T/C,"endpoint: median tumor weight change, dose: 300.0 mg/kg/injection, schedule: Q01DX001 (ip), vehicle: Klucel (hydroxypropylcellulose) (HPC)",34 % of control
O=C(CCBr)N1CCN(C(=O)CCBr)CC1,T/C,"endpoint: median tumor weight (est.), dose: 10.0 mg/kg/injection, schedule: Q07DX005 (ip), vehicle: Klucel (hydroxypropylcellulose) (HPC)",94 % of control
same,T/C,"endpoint: median tumor weight (est.), dose: 20.0 mg/kg/injection, schedule: Q07DX005 (ip), vehicle: Klucel (hydroxypropylcellulose) (HPC)",53 % of control
same,T/C,"endpoint: median tumor weight (est.), dose: 40.0 mg/kg/injection, schedule: Q07DX005 (ip), vehicle: Klucel (hydroxypropylcellulose) (HPC)",67 % of control
same,T/C,"endpoint: median tumor weight (est.), dose: 80.0 mg/kg/injection, schedule: Q07DX005 (ip), vehicle: Klucel (hydroxypropylcellulose) (HPC)",42 % of control
same,T/C,"endpoint: median tumor weight (est.), dose: 160.0 mg/kg/injection, schedule: Q07DX005 (ip), vehicle: Klucel (hydroxypropylcellulose) (HPC)",19 % of control
same,T/C,"endpoint: median tumor weight (est.), dose: 320.0 mg/kg/injection, schedule: Q07DX005 (ip), vehicle: Klucel (hydroxypropylcellulose) (HPC)",6 % of control
ClCCCN1CCCCC1CCl (centres undefined),T/C,"endpoint: median tumor weight (est.), dose: 1.56 mg/kg/injection, schedule: Q07DX005 (ip), vehicle: saline",73 % of control
same,T/C,"endpoint: median tumor weight (est.), dose: 3.12 mg/kg/injection, schedule: Q07DX005 (ip), vehicle: saline",123 % of control and 105 % of control
same,T/C,"endpoint: median tumor weight (est.), dose: 6.25 mg/kg/injection, schedule: Q07DX005 (ip), vehicle: saline",71 % of control and 78 % of control
same,T/C,"endpoint: median tumor weight (est.), dose: 25.0 mg/kg/injection, schedule: Q07DX005 (ip), vehicle: saline",53 % of control
same,T/C,[3],3 % of control
COc1ccc(C(N)=O)cc1N=NN(C)C,T/C,[1],175 % of control
